# Reference: patent US20100093973A1, “POLY(AMINO ACID) COMPOUND HAVING INHIBITORY ACTIVITY ON ABSORPTION OF PHOSPHORUS AND PHOSPHORUS ABSORPTION INHIBITOR” (priority 2007, published 2010)
# Where a name gives a salt, the structure may show the parent alone.
# Test system: not listed separately
# Test: in vitro
# Type: cell-based
# Conditions: not given
# Procedure: MDCK Cells were inoculated into wells of a 96-well plate filled with D-MEM/F12 culture medium (available from GIBCO Company) supplemented with 10% FBS (available from TISSUE CULTURE BIOLOGICALS Company). After the cultivation of the cells for 3 days in a CO2 incubator, the culture medium was removed, a culture medium, in which each candidate substance (synthesized compound) had been dissolved, was added, followed by the cultivation for one day. To each well, there was added 10 μL of Cell Count Reagent SF (available from NAKARAI TESUKU K.K.), followed by the cultivation thereof for 2 hours and the subsequent determination of the absorbance observed at a wavelength of 460 nm. The IC50 values each were calculated on the basis of these measured values.
row,Compound,IC50 [µg/mL]
1,"NCCCC[C@H](N)C(=O)NCCCC[C@H](NC(=O)[C@@H](N)CCCCN)C(=O)NCCCNCCCCNCCCNC(=O)[C@H](CCCCNC(=O)[C@@H](N)CCCCN)NC(=O)[C@@H](N)CCCCN [Example 7, SPM(Lys)6 Hydrochloride]",> 10000

# Same assay, conditions: dog
row,Compound,IC50 at 1 day [µg/mL]
1,"NCCCC[C@H](N)C(=O)N(CCCCN(CCCNC(=O)[C@@H](N)CCCN)C(=O)[C@@H](N)CCCCN)CCCNC(=O)[C@@H](N)CCCN [Example 13, SPM(Orn)2(Lys)2 Hydrochloride]",> 10000
2,"NCCC[C@H](NC(=O)[C@H](CCCN)NC(=O)[C@@H](N)CCCN)C(=O)NCCCN(CCCCN(CCCNC(=O)[C@H](CCCN)NC(=O)[C@H](CCCN)NC(=O)[C@@H](N)CCCN)C(=O)[C@H](CCCN)NC(=O)[C@H](CCCN)NC(=O)[C@@H](N)CCCN)C(=O)[C@H](CCCN)NC(=O)[C@H](CCCN)NC(=O)[C@@H](N)CCCN [Example 28, SPM(Orn)12 Hydrochloride]",> 10000
3,"NCCCC[C@H](NC(=O)[C@H](CCCCN)NC(=O)[C@@H](N)CCCCN)C(=O)NCCCN(CCCCN(CCCNC(=O)[C@H](CCCCN)NC(=O)[C@H](CCCCN)NC(=O)[C@@H](N)CCCCN)C(=O)[C@H](CCCCN)NC(=O)[C@H](CCCCN)NC(=O)[C@@H](N)CCCCN)C(=O)[C@H](CCCCN)NC(=O)[C@H](CCCCN)NC(=O)[C@@H](N)CCCCN [Example 20, SPM(Lys)12 Hydrochloride]",> 10000
4,"NCCCC[C@H](N)C(=O)NCCCC[C@H](N)C(=O)NCCCN(CCCCN(CCCNC(=O)[C@@H](N)CCCCNC(=O)[C@@H](N)CCCCN)C(=O)[C@@H](N)CCCCNC(=O)[C@@H](N)CCCCN)C(=O)[C@@H](N)CCCCNC(=O)[C@@H](N)CCCCN [Example 15, SPM(Lys)8 Hydrochloride]",> 10000
5,"NCCCC[C@H](NC(=O)[C@@H](N)CCCCN)C(=O)NCCCN(CCCCN(CCCNC(=O)[C@H](CCCCN)NC(=O)[C@@H](N)CCCCN)C(=O)[C@H](CCCCN)NC(=O)[C@@H](N)CCCCN)C(=O)[C@H](CCCCN)NC(=O)[C@@H](N)CCCCN [Example 16, SPM(Lys)8 Hydrochloride]",> 10000
6,"N=C(N)NCCC[C@H](N)C(=O)NCCCN(CCCCN(CCCNC(=O)[C@@H](N)CCCNC(=N)N)C(=O)[C@@H](N)CCCNC(=N)N)C(=O)[C@@H](N)CCCNC(=N)N [Example 5, SPM(Arg)4 Hydrochloride]",> 10000
7,"NCCCC[C@H](N)C(=O)NCCCC[C@H](NC(=O)[C@@H](N)CCCCN)C(=O)NCCCN(CCCCN(CCCNC(=O)[C@H](CCCCNC(=O)[C@@H](N)CCCCN)NC(=O)[C@@H](N)CCCCN)C(=O)[C@H](CCCCNC(=O)[C@@H](N)CCCCN)NC(=O)[C@@H](N)CCCCN)C(=O)[C@H](CCCCNC(=O)[C@@H](N)CCCCN)NC(=O)[C@@H](N)CCCCN [Example 2, SPM(Lys)12 Hydrochloride]",> 10000
8,"NCCCC[C@H](N)C(=O)NCCCC[C@H](NC(=O)[C@@H](N)CCCCN)C(=O)N(CCCN)CCCCN(CCCN)C(=O)[C@H](CCCCNC(=O)[C@@H](N)CCCCN)NC(=O)[C@@H](N)CCCCN [Example 12, SPM(Lys)6 Hydrochloride]",> 10000

# Test system: absorption of phosphorus
# Test: Evaluation of efficacy as phosphorus absorption inhibitors: serum radioactivity AUC (0-120 min) after oral 32P NaH2PO4 in rats, inhibitory rate
# Type: in vivo
# Conditions: rats of SD line, oral dose 50 mg/5 mL/kg, 32P NaH2PO4 given orally 5 min later, serum radioactivity AUC 0-120 min vs control
# Procedure: Seven-week-old male rats of SD line (available from SANKYO Labo-Service Co., Ltd.), as test animals, were kept and acclimatized using the usual feed (Solid CRF-1 available from ORIENTAL Yeast Co., Ltd.) and they were used in the following tests after they were fasted overnight. Each candidate substance (synthesized compound) dissolved in distilled water for injection (Otsuka Pharmaceutical Co., Ltd.) was orally administered in a dose of 100 mg/5 mL/kg or 50 mg/5 mL/kg and after 5 minutes from the administration, 3 mg/3 mL/kg, 1 MBq/kg of an NaH2PO4 solution containing ^32P (available from PerkinElmer Company) was orally administered. Subsequently, the blood was collected with the elapse of time through the caudal vein of the test animal to thus obtain the serum thereof and the radioactivity of 40 μL of the serum was determined using a liquid scintillation counter. The inhibitory rate (%) for each candidate compound was calculated on the basis of the foregoing measured values according to the following equation: […]
row,Compound,50 mg/kg Inhibition (%)
1,TETA[Dab(Dab)2]4 Hydrochloride [Example 53],60%
2,TETA (Trp-Orn-Dab)4 Hydrochloride [Example 56],71%
3,TETA(PheOrnDab)4 Hydrochloride [Example 67],84%
4,TETA(OrnPheDab)4 Hydrochloride [Example 69],67%
5,TETA(OrnOrn)2(LeuOrn)2 Hydrochloride [Example 73],52%
6,TETA(TrpOrn)2(OrnOrn)2 Hydrochloride [Example 47],72%
7,TETA(PheOrn)4 Hydrochloride [Example 57],69%
8,TETA(4-NH2Bz)4(Orn)4(Orn)8 Hydrochloride [Example 62],66%
9,TETA[Orn(Orn)2]2(Orn)2 TFA Salt [Example 36],55%
10,TETA[Lys(Dab)2]4 TFA Salt [Example 54],53%
11,TETA(D-Phe-Orn-Orn)4 Hydrochloride [Example 55],85%
12,TAA(TrpOrnOrn)3 Hydrochloride [Example 60],64%
13,TETA(OrnOrn)2(ChaOrn)2 Hydrochloride [Example 58],79%
14,TETA(LeuOrn)4 Hydrochloride [Example 75],55%
15,TETA[Phe-Orn(Orn)2]4 Hydrochloride [Example 51],62%
16,TETA(OrnOrnOrn)2(ProOrnOrn)2 Hydrochloride [Example 65],57%
17,TAA[PheDab(Dab)2]3 Hydrochloride [Example 71],54%
18,TETA(PheDab)4 Hydrochloride [Example 63],73%
19,TETA(Orn)2[Orn(Orn)2]2 TFA Salt [Example 34],63%
20,TETA(PheOrn(3-Ala)4 Hydrochloride [Example 68],73%
21,TETA(PheOrn)2[Orn(Orn)Orn]2 Hydrochloride [Example 43],60%

row,Compound,50 mg/kg Inhibition (%)
1,TAA(PheOrnOrn)3 Hydrochloride [Example 48],74%
2,TETA(Phe-δOrnOrn)4 Hydrochloride [Example 40],76%
3,"TAA[3,5-NH2Bz(Orn)2]3 Hydrochloride [Example 72]",79%
4,TETA(Orn)2[Dab(Dab)2]2 Hydrochloride [Example 59],57%
5,TETA(OrnPheOrn)4 Hydrochloride [Example 70],57%
6,TETA(ProOrnOrn)2(OrnOrnOrn)2 Hydrochloride [Example 66],56%
7,TETA[Orn(Orn)2]2(Orn)2 Hydrochloride [Example 39],55) %
8,TETA(PheOrn)2(OrnOrn)2 Hydrochloride [Example 37],60%
9,TAA[(Benzoyl-4-methylene)DETA]3 Hydrochloride [Example 76],78%
10,TETA(TyrOrn)2(OrnOrn)2 TFA Salt [Example 42],59%
11,TETA(Orn)2[Orn(Orn)2]2 Hydrochloride [Example 38],63) %
12,TEPA(PheOrn)5 Hydrochloride [Example 64],87%
13,TETA(TyrOrn)2(OrnOrn)2 Hydrochloride [Example 52],59) %
14,TETA(D-PheOrn)2(OrnOrn)2 Hydrochloride [Example 46],62%
15,TETA(Phe-δOrnOrn)5 Hydrochloride [Example 45],76%
16,TETA[Orn(Dab)2]4 TFA Salt [Example 35],58%
17,TETA[Orn(Dab)2]4 Hydrochloride [Example 41],58) %
18,TAA(TrpOrnDab)3 Hydrochloride [Example 61],70%
19,TETA(OrnOrn)2(PheOrn)2 Hydrochloride [Example 50],79%
20,TETA[PheAsp(DETA)]4 Hydrochloride [Example 74],79%
21,TETA(Phe-αOrnOrn)4 Hydrochloride [Example 49],74%

# Same assay, conditions: rats of SD line, oral dose 100 mg/5 mL/kg, 32P NaH2PO4 given orally 5 min later, serum radioactivity AUC 0-120 min vs control
row,Compound,Inhibitory Rate (%) of Phosphorus Absorption [%]
1,SPM(Arg)2(Lys)2 Hydrochloride [Example 19],35
2,"NCCCC[C@H](N)C(=O)N(CCCCN(CCCNC(=O)[C@@H](N)CCCN)C(=O)[C@@H](N)CCCCN)CCCNC(=O)[C@@H](N)CCCN [Example 13, SPM(Orn)2(Lys)2 Hydrochloride]",36
3,"NCCC[C@H](NC(=O)[C@H](CCCN)NC(=O)[C@@H](N)CCCN)C(=O)NCCCN(CCCCN(CCCNC(=O)[C@H](CCCN)NC(=O)[C@H](CCCN)NC(=O)[C@@H](N)CCCN)C(=O)[C@H](CCCN)NC(=O)[C@H](CCCN)NC(=O)[C@@H](N)CCCN)C(=O)[C@H](CCCN)NC(=O)[C@H](CCCN)NC(=O)[C@@H](N)CCCN [Example 28, SPM(Orn)12 Hydrochloride]",66
4,SPM(Lys)9 Hydrochloride [Example 27],64
5,"NCCCC[C@H](NC(=O)[C@H](CCCCN)NC(=O)[C@@H](N)CCCCN)C(=O)NCCCN(CCCCN(CCCNC(=O)[C@H](CCCCN)NC(=O)[C@H](CCCCN)NC(=O)[C@@H](N)CCCCN)C(=O)[C@H](CCCCN)NC(=O)[C@H](CCCCN)NC(=O)[C@@H](N)CCCCN)C(=O)[C@H](CCCCN)NC(=O)[C@H](CCCCN)NC(=O)[C@@H](N)CCCCN [Example 20, SPM(Lys)12 Hydrochloride]",60
6,SPM(Orn)12 Hydrochloride [Example 8],63
7,"NCCCC[C@H](N)C(=O)NCCCC[C@H](N)C(=O)NCCCN(CCCCN(CCCNC(=O)[C@@H](N)CCCCNC(=O)[C@@H](N)CCCCN)C(=O)[C@@H](N)CCCCNC(=O)[C@@H](N)CCCCN)C(=O)[C@@H](N)CCCCNC(=O)[C@@H](N)CCCCN [Example 15, SPM(Lys)8 Hydrochloride]",33
8,"NCCCC[C@H](NC(=O)[C@@H](N)CCCCN)C(=O)NCCCN(CCCCN(CCCNC(=O)[C@H](CCCCN)NC(=O)[C@@H](N)CCCCN)C(=O)[C@H](CCCCN)NC(=O)[C@@H](N)CCCCN)C(=O)[C@H](CCCCN)NC(=O)[C@@H](N)CCCCN [Example 16, SPM(Lys)8 Hydrochloride]",49
9,"N=C(N)NCCC[C@H](N)C(=O)NCCCN(CCCCN(CCCNC(=O)[C@@H](N)CCCNC(=N)N)C(=O)[C@@H](N)CCCNC(=N)N)C(=O)[C@@H](N)CCCNC(=N)N [Example 5, SPM(Arg)4 Hydrochloride]",52
10,SPM(Lys)2(Arg)2 Hydrochloride [Example 23],45
11,SPM(Orn)2 Hydrochloride [Example 17],30
12,SPM(Lys)8 Hydrochloride [Example 11],44
13,SPM(Orn)4 Hydrochloride [Example 9],30
14,"NCCCC[C@H](N)C(=O)NCCCC[C@H](NC(=O)[C@@H](N)CCCCN)C(=O)NCCCN(CCCCN(CCCNC(=O)[C@H](CCCCNC(=O)[C@@H](N)CCCCN)NC(=O)[C@@H](N)CCCCN)C(=O)[C@H](CCCCNC(=O)[C@@H](N)CCCCN)NC(=O)[C@@H](N)CCCCN)C(=O)[C@H](CCCCNC(=O)[C@@H](N)CCCCN)NC(=O)[C@@H](N)CCCCN [Example 2, SPM(Lys)12 Hydrochloride]",52
15,SPM(Orn)8 Hydrochloride [Example 22],60
16,"NCCCC[C@H](N)C(=O)NCCCC[C@H](NC(=O)[C@@H](N)CCCCN)C(=O)N(CCCN)CCCCN(CCCN)C(=O)[C@H](CCCCNC(=O)[C@@H](N)CCCCN)NC(=O)[C@@H](N)CCCCN [Example 12, SPM(Lys)6 Hydrochloride]",43
17,"NCCCC[C@H](N)C(=O)NCCCC[C@H](NC(=O)[C@@H](N)CCCCN)C(=O)NCCCNCCCCNCCCNC(=O)[C@H](CCCCNC(=O)[C@@H](N)CCCCN)NC(=O)[C@@H](N)CCCCN [Example 7, SPM(Lys)6 Hydrochloride]",24
18,SPM(Lys)2(Orn)2 Hydrochloride [Example 10],30
